Measurements reported in patent US8110585B2, “Bicyclic compound and pharmaceutical use thereof” (Takeda Pharmaceutical Company Limited, priority 2007, dated 2012).

Assays:
[1] = target: T1, human melatonin 2 receptors (human MT2 receptors) (Homo sapiens, UniProt P49286); assay: Melatonin receptor binding inhibitory test, 2-[125I] Iodomelatonin, MT2; conditions: membrane fraction of CHO-hMT2 cells, 25° C. for 2.5 hr, read-out: binding inhibitory activity as IC50 value for MT2
T1 construct: expressed in transfected cells; membrane fraction
T1 sequence (P49286 1-362): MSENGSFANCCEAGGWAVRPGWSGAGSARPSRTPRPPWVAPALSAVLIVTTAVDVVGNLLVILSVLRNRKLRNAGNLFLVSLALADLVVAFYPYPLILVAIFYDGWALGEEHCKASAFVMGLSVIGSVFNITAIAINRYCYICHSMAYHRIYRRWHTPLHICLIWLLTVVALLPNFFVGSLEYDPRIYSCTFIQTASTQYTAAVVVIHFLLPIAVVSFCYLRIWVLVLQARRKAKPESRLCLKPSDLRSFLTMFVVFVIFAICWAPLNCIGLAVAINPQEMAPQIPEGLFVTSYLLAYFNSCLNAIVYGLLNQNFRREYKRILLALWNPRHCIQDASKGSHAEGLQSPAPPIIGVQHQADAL
Experimental: (§1) Melatonin Receptor Binding Inhibitory Test
(2) Preparation of CHO-hMT2 Cells Expressing Human Melatonin 2 Receptors
A cDNA fragment (SEQ ID NO: 2) encoding full-length of human melatonin 2 receptors (human MT2 receptors) was incorporated into expression vector pCMV-Script (Stratagene, #212220) to give the plasmid that was pCMV-human MT2 receptors expression vector for animal cell expression. CHO-K1 cells (ATCC, #CCL-61) were plated at the concentration of 1.5×10^5 cells/cm^2 in a 6 well plate (ASAHI TECHNO GLASS), and cultured under the conditions of 37° C., 5% CO2 for 24 hr. For gene transfection, solution obtained by blending pCMV-human MT2 receptors expression vector (1.9 μg), Lipofectamine Transfection Reagent (Invitrogen, #18324-012) (11.3 μL) and Minimum Essential Medium Eagle (MEM) medium (Sigma, M8042) (93.8 μL), and reacting at room temperature for 20 min was added to the cells per one well. The transfected cells were cultured in MEM medium containing 10% FBS (Life Technology) and 300 μg/mL Geneticin (GIBCO, #10131), and the cell line that stably expressed the plasmid gene was selected. By a receptor binding assay using 2-[^125I] Iodomelatonin, CHO-hMT2 cell line showing specific binding of 2-[^125I] Iodomelatonin was selected from the obtained clones.
(§2) (3) Preparation of Cellular Membrane Fraction of CHO Cell (CHO-hMelR7 and CHO-hMT2) Stably Expressing Human MT1 and MT2 Receptors
(§3) CHO-hMelR7 and CHO-hMT2 cells were plated using Cellfactory (Nunc, #170009) under the conditions of 1×10^8 cells/2000 mL/flask. The cells were grown to confluent, and recovered by the following method. As the medium for CHO-hMelR7 and CHO-hMT2, MEM a containing 10% FBS and penicillin/streptomycin was used. […]
(§4) The medium was discarded, cells were washed twice with 200 mL of EDTA/PBS(−), 200 mL of EDTA/PBS(−) was further added, and the cells were stood still at room temperature for 20 min until they were released. The cells were recovered in four 50 mL tubes (Becton Dickinson, #352070), and centrifuged at 1,500 rpm for 10 min at 4° C. using a low speed cooling centrifuge (Hitachi, CF7D2). The supernatant was discarded, the pellets in the four tubes were suspended in 10 mL of PBS(−), and combined in one tube (Becton Dickinson, #352070). The mixture was further centrifuged at 1,500 rpm for 10 min at 4° C., and the obtained pellets were suspended in 20 mL of ice-cooled homogenizing buffer [10 mM NaHCO3, 5 mM EDTA, Protease inhibitor Complete (Roche), pH 7.4]. The cell suspension was homogenized 3 times using a polytron homogenizer at 20,000 rpm for 30 sec. The obtained homogenate was centrifuged (2,000 rpm, 10 min, 4° C.) using a low speed cooling centrifuge. The supernatant was recovered in an ultracentrifugation tube and ultracentrifuged (40,000 rpm, 60 min, 4° C.) using an ultracentrifuge (Beckman, L-90K). To the obtained pellets was added a suspending buffer [50 mM Tris-HCl, 1 mM EDTA, Protease inhibitor Complete (Roche), pH 7.4], and the pellets were suspended by pipetting. The protein concentration of this suspension was measured, diluted to 2 mg/mL to give cellular membrane fractions of CHO-hMelR7 and CHO-hMT2 cells. The membrane fractions were dispensed to 1.5 mL tubes (Eppendorf, #0030120.086) by 100 μL, preserved in a freezer (−80° C.) and used for a binding assay. Protein was quantified using BCA protein assay kit (Pierce) with BSA as the standard.
(§5) (4) Preparation of Membrane Fraction Suspension
(§6) Immediately before use, the membrane fractions of CHO-hMelR7 and CHO-hMT2 cells of the above-mentioned (3) were diluted 20-fold with assay buffer (50 mM Tris-HCl, pH 7.7).
(§7) (5) Preparation of 2-[^125I] Iodomelatonin Solution
(§8) 2-[^125I] Iodomelatonin (#NEX236, PerkinElmer) was diluted with the assay buffer to 400 pM for MT1 and 1 nM for MT2.
The assay buffer (80 μL) of the above-mentioned (4) was added to each well of a 96-well plate (type 3363, Corning). […]

[2] = target: T2, human melatonin 1 receptors (human MT1 receptors) (Homo sapiens, UniProt P48039); assay: Melatonin receptor binding inhibitory test, 2-[125I] Iodomelatonin, MT1; conditions: membrane fraction of CHO-hMelR7 cells, 25° C. for 2.5 hr, read-out: binding inhibitory activity as IC50 value for MT1
T2 construct: expressed in transfected cells; membrane fraction
Experimental: as §1
(1) Preparation of CHO-hMelR7 Cells expressing Human Melatonin 1 Receptors
A cDNA fragment (SEQ ID NO: 1) encoding full-length of human melatonin 1 receptors (human MT1 receptors) was incorporated into expression vector pAKKO-111H (former name pAKKO1.11H; Biochim Biophys Acta. Vol. 1219(2), pp. 251-259, 1994) to give plasmid pAKKO-hMelR7 for animal cell expression. CHO/dhfr-cells (ATCC, #CRL-9096) were plated at a concentration of 0.3×10^6 cells/dish in a 6 cm culture dish (Becton Dickinson), and cultured under the conditions of 37° C., 5% CO2 for 48 hr. The cells were transfected with pAKKO-hMelR7 plasmid DNA (5 μg) using Cellphect Transfection Kit (Amersham, #27-9268-01). The transfected cells were cultured in Dulbecco's modified Eagle medium (DMEM) (Sigma, #D6046) containing 10% dialyzed FBS (Biowest, #S180D), 1× Non-Essential Amino Acid (Invitrogen, #11140-050) and 50 μg/mL Gentamycin (Invitrogen, #15750-060), and the cell line that stably expressed the plasmid gene was selected. By a receptor binding assay using 2-[^125I] Iodomelatonin, CHO-hMelR7 cell line showing specific binding of 2-[^125I] Iodomelatonin was selected from the obtained clones.
as §2, §3, §4, §5, §6, §7, §8
The assay buffer (80 μL) of the above-mentioned (4) was added to each well of a 96-well plate (type 3363, Corning). Then, a test compound (compound solution diluted with DMSO to 200-fold of the final measurement concentration) was added by 2 μL. […]

T2 sequence (P48039 whole entry): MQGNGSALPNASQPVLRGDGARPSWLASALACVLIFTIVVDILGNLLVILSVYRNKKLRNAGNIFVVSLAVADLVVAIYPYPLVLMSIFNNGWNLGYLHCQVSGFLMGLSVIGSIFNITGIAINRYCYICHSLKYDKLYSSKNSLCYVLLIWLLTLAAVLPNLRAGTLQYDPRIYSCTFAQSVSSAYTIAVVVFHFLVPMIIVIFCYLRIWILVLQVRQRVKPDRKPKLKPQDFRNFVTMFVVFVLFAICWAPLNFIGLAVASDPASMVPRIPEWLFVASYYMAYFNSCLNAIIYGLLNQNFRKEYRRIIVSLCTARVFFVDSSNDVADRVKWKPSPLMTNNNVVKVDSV

| IC50 [1] [nM] | IC50 [2] [nM] | melting point [°C] | SMILES |
| --- | --- | --- | --- |
| ≤ 100 | ≤ 100 | 158 to 159 | CCC(=O)NC[C@@H]1C[C@H]1c1c(F)ccc2nn(C)cc12 (relative stereo) [Example 26, trans-N-{[2-(5-fluoro-2-methyl-2H-indazol-4-yl)cyclopropyl]methyl}propanamide] |
| ≤ 100 | ≤ 100 | 136 to 138 | Cc1cc2c([C@@H]3C[C@H]3CNC(=O)C(F)(F)F)cccn2n1 (relative stereo) [Example 46, trans-2,2,2-trifluoro-N-{[2-(2-methylpyrazolo[1,5-a]pyridin-4-yl)cyclopropyl]methyl}acetamide] |
| ≤ 100 | ≤ 100 | 155 to 159 | CCn1cc2c(C3CC3CNC(C)=O)cccc2n1 (stereo not drawn) [Example 16, N-{[2-(2-ethyl-2H-indazol-4-yl)cyclopropyl]methyl}acetamide] |
| ≤ 100 | ≤ 100 | 120 | CC(=O)NC[C@H]1C[C@@H]1c1c(F)ccc2nn(C)cc12 [Example 24, N-{[(1S,2S)-2-(5-fluoro-2-methyl-2H-indazol-4-yl)cyclopropyl]methyl}acetamide] |
| ≤ 100 | ≤ 100 | 135 to 137 | CC(=O)NCC1CC1c1c(Br)ccc2nn(C)cc12 (stereo not drawn) [Example 29, N-{[2-(5-bromo-2-methyl-2H-indazol-4-yl)cyclopropyl]methyl}acetamide] |
| ≤ 100 | ≤ 100 | 139 to 140 | CC(=O)NCC1CC1c1c(C)ccc2nn(C)cc12 (stereo not drawn) [Example 31, N-{[2-(2,5-dimethyl-2H-indazol-4-yl)cyclopropyl]methyl}acetamide] |

The remaining lines, values behind:

| SMILES | IC50 [1] [nM] | IC50 [2] [nM] | melting point [°C] |
| --- | --- | --- | --- |
| CCCC(=O)NC[C@@H]1C[C@H]1c1cccn2nc(C)cc12 (relative stereo) [Example 45, trans-N-{[2-(2-methylpyrazolo[1,5-a]pyridin-4-yl)cyclopropyl]methyl}butanamide] | ≤ 100 | ≤ 100 | 82 to 84 |
| Cc1cc2c([C@@H]3C[C@H]3CNC(=O)C3CC3)cccn2n1 (relative stereo) [Example 47, trans-N-{[2-(2-methylpyrazolo[1,5-a]pyridin-4-yl)cyclopropyl]methyl}cyclopropanecarboxamide] | ≤ 100 | ≤ 100 | 133 to 135 |
| CCNC(=O)NC[C@@H]1C[C@H]1c1cccn2nc(C)cc12 (relative stereo) [Example 51, trans-N-ethyl-N′-{[2-(2-methylpyrazolo[1,5-a]pyridin-4-yl)cyclopropyl]methyl}urea] | ≤ 100 | ≤ 100 | 108 to 110 |
| CC(=O)NC[C@H]1C[C@@H]1c1cccc2nn(C)cc12 [Example 10, N-{[(1S,2S)-2-(2-methyl-2H-indazol-4-yl)cyclopropyl]methyl}acetamide] | ≤ 100 | ≤ 100 | 145 to 147 |
| CC(=O)NC[C@@H]1C[C@H]1c1cccc2nn(C)cc12 [Example 11, N-{[(1R,2R)-2-(2-methyl-2H-indazol-4-yl)cyclopropyl]methyl}acetamide] | ≤ 100 | ≤ 100 | 145 to 147 |
| CCC(=O)NC[C@H]1C[C@@H]1c1cccc2nn(C)cc12 [Example 12, N-{[(1S,2S)-2-(2-methyl-2H-indazol-4-yl)cyclopropyl]methyl}propanamide] | ≤ 100 | ≤ 100 | 79 to 80 |
| CCC(=O)NC[C@@H]1C[C@H]1c1cccc2nn(C)cc12 [Example 13, N-{[(1R,2R)-2-(2-methyl-2H-indazol-4-yl)cyclopropyl]methyl}propanamide] | ≤ 100 | ≤ 100 | 78 to 80 |
| CCC(=O)NCC1CC1c1cccc2nn(CC)cc12 (stereo not drawn) [Example 17, N-{[2-(2-ethyl-2H-indazol-4-yl)cyclopropyl]methyl}propanamide] | ≤ 100 | ≤ 100 | 114 to 115 |
| CC(=O)NC[C@@H]1C[C@H]1c1cccc2nn(C)c(F)c12 [Example 19, N-{[(1R,2R)-2-(3-fluoro-2-methyl-2H-indazol-4-yl)cyclopropyl]methyl}acetamide] | ≤ 100 | ≤ 100 | 138 to 139 |
| CC(=O)NC[C@@H]1C[C@H]1c1c(F)ccc2nn(C)cc12 [Example 25, N-{[(1R,2R)-2-(5-fluoro-2-methyl-2H-indazol-4-yl)cyclopropyl]methyl}acetamide] | ≤ 100 | ≤ 100 | 120 |
| CC(=O)NCC1CC1c1c(Cl)ccc2nn(C)cc12 (stereo not drawn) [Example 27, N-{[2-(5-chloro-2-methyl-2H-indazol-4-yl)cyclopropyl]methyl}acetamide] | ≤ 100 | ≤ 100 | 149 to 150 |
| CCC(=O)NCC1CC1c1c(Cl)ccc2nn(C)cc12 (stereo not drawn) [Example 28, N-{[2-(5-chloro-2-methyl-2H-indazol-4-yl)cyclopropyl]methyl}propanamide] | ≤ 100 | ≤ 100 | 152 to 153 |
| CCC(=O)NCC1CC1c1c(Br)ccc2nn(C)cc12 (stereo not drawn) [Example 30, N-{[2-(5-bromo-2-methyl-2H-indazol-4-yl)cyclopropyl]methyl}propanamide] | ≤ 100 | ≤ 100 | 119 to 121 |
